Laboratory results reported in US10849867B2, “Methods and compositions for treating conditions associated with an abnormal inflammatory response” (First Wave Bio, Inc., priority 2015, dated 2020).

Columns and labels:
LPMC T cells = test: LPMC T cell death, 7-AAD flow cytometry (Example 3); format: cell-based, human
Procedure: Objective. […] Model. The human LPMC model as described in Example 2 was used. Cell isolation and culture. Cell isolation and culture procedures were as detailed in Example 2. Treatment with Niclosamide. […] […] […] After treatment cells were exposed to 1 μM 7AAD then incubated a further 60 minutes at 37° C. Live cells and dead cells were enumerated by flow cytometer using a FACS Verse cytometer set to excite and measure emitted fluorescence of 7-AAD at appropriate wavelengths. Detecting viable and dead cells. 7-AAD is excluded from live cells but free to enter dead cells where it undergoes a spectral shift after interacting with cellular DNA. […] Use of this reagent allows viable cells and dead cells to be simultaneously enumerated. In order to specifically distinguish T cells from other cells in LPMCs, anti-CD3 monoclonal antibody labeled with FITC (excitation at 494 nm with emission detected at 521 nm) will be used. This antibody specifically binds human CD3 antigen that is selectively expressed on T cells. Cell viability and death was determined specifically in T cells by measuring 7-AAD fluorescence in cells labeled by anti-CD3 FITC. Calculation of T cell death. The fluorescence intensity of 7-AAD detected at 647 nm was measured specifically T the cell population that was first defined as described in Example 2 by FITC-anti-CD3 antibody fluorescence. […] For statistical comparisons, 95% confidence intervals were computed and graphed with the mean values.

[1] = test system: TNBS model of ulcerative colitis; test: Murine TNBS model of ulcerative colitis, rectal versus intraperitoneal (FIG. 2); format: in vivo
human LPMCs T cells = test: Pro-inflammatory cytokine producing LPMC T cells, intracellular staining flow cytometry (Example 10); format: cell-based; details: 5 μM, 24 h, relative to vehicle only negative control
Source text: Model: Lamina propria mononuclear cells (LPMC) in the human intestine are comprised in part by T cells which mediate pathological processes including inflammatory bowel disease. LPMCs can be isolated from human intestine tissue biopsies. After isolation […] cells remain viable ex vivo under appropriate culture conditions for periods of time that allow ex vivo experiments. These cells can be used to investigate if test agents affect their production of pro-inflammatory cytokines including interferon-gamma (IFN), tumor necrosis factor-alpha (TNF) and interleukin 17A (IL-17A), to determine if a test agent affects the pro-inflammatory cytokines that mediate inflammatory bowel disease, including UC. Cell Isolation and Culture: Cells were obtained from colon biopsy specimens of a human from areas with moderate to severe UC. For the isolation of lamina propria mononuclear […] specimens were initially washed in Hank's balanced salt solution (HBSS) then cut into 0.5-cm pieces, and incubated with stirring in pre-warmed HBSS containing 1 mM DTT at 37° C. for 15 minutes. The supernatant was removed and the sample washed with stirring with HBSS for 5 minutes twice. Samples were incubated with stirring in pre-warmed HBSS containing 5 mM EDTA for 30 minutes. The supernatant was removed and the sample washed with stirring with HBSS for 5 minutes three times. The tissue was then digested further in RPMI 1640 containing 2 mg/ml Liberase and 0.01 ug/ml DNase I for 1 hours at 37° C. with stirring. After digestion, the mononuclear cells in suspension were collected and centrifuged at 400 g for 10 minutes. After two washings in HBS, the pellet was resuspended in a 40% Percoll solution and layered on the top of a Percoll solution (100%, 60%, 40%, and 30% Percoll in HBSS). The tube was centrifuged at 400 g for 25 minutes, and LPMCs at the 60%-40% Percoll layer interface were collected. The isolated cells were counted and checked for viability using 0.1% trypan blue (viability ranged from 86% to 94%). […]

## O=C(Nc1ccc([N+](=O)[O-])cc1Cl)c1cc(Cl)ccc1O [Niclosamide, 5-chloro-N-(2-chloro-4-nitrophenyl)-2-hydroxybenzamide]
LPMC T cells; 1-500 μM, 24 hours, 7-AAD in CD3+ cells
  LPMC T cell death: dose-related increase
LPMC T cells; LPMC T cells
  concentrations that fail to induce T cell death: below 5 μM
LPMC T cells; relative to negative controls with vehicle alone
  concentrations of niclosamide that significantly increase T cell death (p<0.05): ≥ 5 µM
[1]; administered rectally (locally)
  efficacy in murine TNBS model of ulcerative colitis: robust efficacy
[1]; intraperitoneal injection (systemically)
  efficacy in murine TNBS model of ulcerative colitis: not by intraperitoneal injection
Human LPMCs T cells
  human LPMCs T cells that produce IFN: decrease
  human LPMCs T cells that produce IL-17A: decrease
  human LPMCs T cells that produce TNF: decrease
